Assay results reported in patent US20190202877A1, “DERMASEPTIN-TYPE AND PISCIDIN-TYPE ANTIMICROBIAL PEPTIDES” (THE REGENTS OF THE UNIVERSITY OF COLORADO, a body corporate, priority 2014, published 2019).
Converted amounts (≈) assume the structure as drawn. Like-named read-outs stand apart in the source and are kept apart here.

How the values were obtained:
[1] = tested on: methicillin sensitive Staph. aureus (MSSA); format: cell-based, Staphylococcus aureus; conditions: for MIC: MH medium, 37° C., 24 h
Procedure: (§1) MICs were determined by a standard microtiter dilution method in Mueller Hinton (MH) medium. Briefly, cells were grown overnight at 37° C. in MH broth and were diluted in the same medium. Serial dilutions of the peptides were added to the microtiter plates in a volume of 50 μl, followed by the addition of 50 μl of bacteria to give a final inoculum of 5×10^5 colony-forming units (CFU)/mL. The plates were incubated at 37° C. for 24 h, and the MICs were determined as the lowest peptide concentration that inhibited growth.
(§2) Various peptides of the invention were tested for antimicrobial activity as described in Example 1. The antimicrobial activity of these peptides was similarly tested against Gram-positive organisms, including Staphylococcus aureus.

[2] = tested on: methicillin resistant Staph. aureus (MRSA); format: cell-based, Staphylococcus aureus; conditions: for MIC: MH medium, 37° C., 24 h
Procedure: as §1, §2

human red blood cells = conditions: for Fold improvement in HC50: compared to D-Piscidin 1 or D-Dermaseptin S4, 18 hours
Procedure: Peptide samples (concentrations determined by amino acid analysis) were added to 1% human erythrocytes in phosphate-buffered saline (100 mM NaCl, 80 mM Na2HPO4, 20 mM NaH2PO4, pH 7.4) and the reaction mixtures were incubated at 37° C. for 18 h in microtiter plates. Two-fold serial dilutions of the peptide samples were carried out. This determination was made by withdrawing aliquots from the hemolysis assays and removing unlysed erythrocytes by centrifugation (800×g). Hemoglobin release was determined spectrophotometrically at 570 nm. The control for 100% hemolysis was a sample of erythrocytes treated with water or 0.1% Triton-X 100. The control for no release of hemoglobin was a sample of 1% erythrocytes without any peptide added. […] The hemolytic activity was determined as the peptide concentration that caused 50% hemolysis of erythrocytes after 18 h (HC50). HC50 as determined from a plot of percent lysis versus peptide concentration (μM). The inventors also determined the hemolytic activity after 1 hour at 37° C.

Compound `CSCC[C@@H](NC(=O)[C@@H](Cc1c[nH]c2ccccc12)NC(=O)[C@@H](CC(C)C)NC(=O)[C@@H](C)N)C(=O)N[C@@H](C(=O)N[C@H](CC(C)C)C(=O)N[C@H](CC(C)C)C(=O)N[C@H](CCCCN)C(=O)N[C@H](CCCCN)C(=O)N[C@@H](C(=O)N[C@H](CC(C)C)C(=O)N[C@H](CCCCN)C(=O)N[C@H](C)C(=O)N[C@H](C)C(=O)N[C@H](C)C(=O)N[C@H](CCCCN)C(=O)N[C@H](C)C(=O)N[C@H](CC(C)C)C(=O)N[C@H](CC(N)=O)C(=O)N[C@H](C)C(=O)N[C@@H](C(=O)N[C@H](CC(C)C)C(=O)N[C@@H](C(=O)NCC(=O)N[C@H](C)C(=O)N[C@H](CC(N)=O)C(=O)N[C@H](C)C(N)=O)C(C)C)C(C)C)C(C)C)[C@H](C)O` [D-Dermaseptin S4, reference compound] has an MIC ([1]; MSSA strain BL7429) of 2.8 µM (≈ 7.78 µg/mL), an MIC ([1]; MSSA strain M21913) of 5.6 µM (≈ 15.6 µg/mL) and an MIC ([1]; MSSA strain M21935) of 5.6 µM (≈ 15.6 µg/mL). The MIC ([1]; MSSA strain M21991) was 5.6 µM (≈ 15.6 µg/mL), the MIC ([1]; MSSA strain M22075) was 2.8 µM (≈ 7.78 µg/mL) and the MIC ([1]; MSSA strain M22097) was 5.6 µM (≈ 15.6 µg/mL). The MIC ([1]; MSSA strain M22111) was 5.6 µM (≈ 15.6 µg/mL), the MIC ([1]; MSSA strain M22274) was 11.3 µM (≈ 31.4 µg/mL) and the MIC ([1]; MSSA strain M22287) was 5.6 µM (≈ 15.6 µg/mL). For the same compound, the MIC ([1]; MSSA strain M22300) was 5.6 µM (≈ 15.6 µg/mL), the MIC ([1]; MSSA strain M22312) was 11.3 µM (≈ 31.4 µg/mL) and the MIC ([1]; MSSA strain M22315) was 11.3 µM (≈ 31.4 µg/mL). For the same compound, the “MIC GM, MSSA” value ([1]; geometric mean of MIC from 12 different isolates of MSSA) was 6.0 µM (≈ 16.7 µg/mL), the MIC ([2]; MRSA strain M21742 (nose)) was 5.6 µM (≈ 15.6 µg/mL) and the MIC ([2]; MRSA strain M21756 (nose)) was 2.8 µM (≈ 7.78 µg/mL). For the same compound, the MIC ([2]; MRSA strain M22111 (ear)) was 5.6 µM (≈ 15.6 µg/mL), the MIC ([2]; MRSA strain M22130) was 5.6 µM (≈ 15.6 µg/mL) and the MIC ([2]; MRSA strain M22224 (leg)) was 5.6 µM (≈ 15.6 µg/mL). It also gave an MIC ([2]; MRSA strain M22354) of 5.6 µM (≈ 15.6 µg/mL), an MIC ([2]; MRSA strain M22360 (labia)) of 5.6 µM (≈ 15.6 µg/mL) and an MIC ([2]; MRSA strain M22424 (arm)) of 11.3 µM (≈ 31.4 µg/mL). The “MIC GM, MRSA” value ([2]; geometric mean of MIC from 8 different isolates of MRSA) was 5.6 µM (≈ 15.6 µg/mL) and the “Fold improvement in HC50” value (human red blood cells) was 1.0 fold.

`CC[C@@H](C)[C@@H](NC(=O)[C@H]1CCCN1C(=O)[C@@H](CCCNC(=N)N)NC(=O)[C@@H](Cc1ccccc1)NC(=O)[C@H](NC(=O)[C@@H](Cc1c[nH]cn1)NC(=O)[C@@H](Cc1c[nH]cn1)NC(=O)[C@@H](Cc1ccccc1)NC(=O)[C@H](N)Cc1ccccc1)[C@H](C)CC)C(=O)N[C@@H](C(=O)N[C@H](Cc1c[nH]cn1)C(=O)N[C@@H](C(=O)NCC(=O)N[C@H](CCCCN)C(=O)N[C@@H](C(=O)N[C@@H](C(=O)N[C@H](Cc1c[nH]cn1)C(=O)N[C@H](CCCNC(=N)N)C(=O)N[C@H](CC(C)C)C(=O)N[C@@H](C(=O)N[C@@H](C(=O)NCC(N)=O)[C@H](C)O)C(C)C)[C@H](C)CC)[C@H](C)O)C(C)C)C(C)C` [D-Piscidin 1 G8P] was tested, and the “fold increase in hemolytic activity from 1 to 18 hours” value (human red blood cells; HC50 1 hour vs 18 hours at 37° C.) was 7 fold.

In the case of `CC[C@@H](C)[C@@H](NC(=O)CNC(=O)[C@@H](CCCNC(=N)N)NC(=O)[C@@H](Cc1ccccc1)NC(=O)[C@H](NC(=O)[C@@H](Cc1c[nH]cn1)NC(=O)[C@@H](Cc1c[nH]cn1)NC(=O)[C@@H](Cc1ccccc1)NC(=O)[C@H](N)Cc1ccccc1)[C@H](C)CC)C(=O)N[C@@H](C(=O)N[C@H](Cc1c[nH]cn1)C(=O)N[C@@H](C(=O)N[C@H](CCCCN)C(=O)N[C@H](CCCCN)C(=O)N[C@@H](C(=O)N[C@@H](C(=O)N[C@H](Cc1c[nH]cn1)C(=O)N[C@H](CCCNC(=N)N)C(=O)N[C@H](CC(C)C)C(=O)N[C@@H](C(=O)N[C@@H](C(=O)NCC(N)=O)[C@H](C)O)C(C)C)[C@H](C)CC)[C@H](C)O)C(C)C)C(C)C` [D-Piscidin 1 G13K], the “Fold improvement in HC50” value (human red blood cells) is reported as 3.9 fold.
